System: HCV replicon I389luc-ubi-neo/NS3-3′/ET in ET (Huh-lucubineo-ET) cells; screening for HCV RNA dependent RNA polymerase
Assay: Replicon Assay (luciferase, ET cell line Huh-lucubineo-ET)
Assay type: cell-based
Conditions: Hepatitis C virus; inhibition of replication relative to no compound control; test concentration of 10 μM according to the fitted equation; luciferase 48-72 hours
In short: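 Huh-derived ET cells stably carrying an I389luc-ubi-neo/NS3-3′/ET HCV replicon with a luciferase-ubiquitin-neomycin phosphotransferase fusion and adaptive NS3-5B mutations were cultured in DMEM with 10% fetal calf serum and 250 μg/mL G418. Cells were seeded at 0.5-1.0×10^4 cells/well in 96 well plates and given compound after 24 hrs. Luciferase was read 48-72 hours later with Bright-Glo reagents, and replication inhibition was expressed relative to untreated controls.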

SMILES | inhibition at 10 µM
CC(C)c1ccc(-c2csc(NC(=O)[C@@H]3CCCN3C(=O)OCc3ccccc3)n2)cc1 [Compound 5069, 2-[4-(4-Isopropyl-phenyl)-thiazol-2-ylcarbamoyl]-pyrrolidine-1-carboxylic acid benzyl ester] | 3.15%
O=C(NC1CC1)c1ccc(-c2csc(NC(=O)[C@@H]3SCCN3C(=O)OCc3ccccc3)n2)cc1 [Compound 5350, 2-[4-(4-Cyclopropylcarbamoyl-phenyl)-thiazol-2-ylcarbamoyl]-thiazolidine-3-carboxylic acid benzyl ester] | 100%
O=C(NC1CCCC1)c1ccc(-c2cnc(NC(=O)[C@@H]3CCCN3C(=O)OCc3ccccc3)s2)cc1 [Compound 5368, 2-[5-(4-Cyclopentylcarbamoyl-phenyl)-thiazol-2-ylcarbamoyl]-pyrrolidine-1-carboxylic acid benzyl ester] | 50.8%
O=C(Nc1nc(CSc2nc(-c3ccc(F)cc3)cs2)cs1)[C@@H]1CCCN1C(=O)OCc1ccccc1 [Compound 5061, 2-{4-[4-(4-Fluoro-phenyl)-thiazol-2-ylsulfanylmethyl]-thiazol-2-ylcarbamoyl}-pyrrolidine-1-carboxylic acid benzyl ester] | 88.4%
O=C(Nc1nc(-c2cccc3ccccc23)cs1)[C@@H]1CCCN1C(=O)OCc1ccccc1 [Compound 5055, 2-(4-Naphthalen-1-yl-thiazol-2-ylcarbamoyl)-pyrrolidine-1-carboxylic acid benzyl ester] | 99.3%
O=C(Nc1cccc(-c2cnc(NC(=O)[C@@H]3CCCN3C(=O)OCc3ccccc3)s2)c1)c1ccccc1 [Compound 5113, 2-[5-(3-Benzoylamino-phenyl)-thiazol-2-ylcarbamoyl]-pyrrolidine-1-carboxylic acid benzyl ester] | 99.7%
CC(C)CC1CC(C)(c2csc(NC(=O)[C@@H]3CCCN3C(=O)OCc3ccccc3)n2)OC1=O (stereo in doubt) [Compound 5009, 2-[4-(4-Isobutyl-2-methyl-5-oxo-tetrahydro-furan-2-yl)-thiazol-2-ylcarbamoyl]-pyrrolidine-1-carboxylic acid benzyl ester] | 63.4%
O=C(NC1CC1)c1ccc(-c2csc(NC(=O)C3CCCN3C(=O)OCc3cccnc3)n2)cc1 (centres unmarked) [Compound 5320, 2-[4-(4-Cyclopropylcarbamoyl-phenyl)-thiazol-2-ylcarbamoyl]-pyrrolidine-1-carboxylic acid pyridin-3-ylmethyl ester] | 99.8%
O=C(Nc1nc(COc2ccc(Cl)cc2)cs1)[C@@H]1CCCN1C(=O)OCc1ccccc1 [Compound 5045, 2-[4-(4-Chloro-phenoxymethyl)-thiazol-2-ylcarbamoyl]-pyrrolidine-1-carboxylic acid benzyl ester] | 6.85%
O=C(CCCCC1SCC2NC(=O)NC21)Nc1ccc(-c2csc(NC(=O)[C@@H]3CCCN3C(=O)OCc3ccccc3)n2)cc1 (some centres unmarked) [Compound 5093, 2-(4-{4-[5-(2-Oxo-hexahydro-thieno[3,4-d]imidazol-4-yl)-pentanoylamino]-phenyl}-thiazol-2-ylcarbamoyl)-pyrrolidine-1-carboxylic acid benzyl ester] | 100%
NCc1ccc(-c2csc(NC(=O)[C@@H]3CCCN3C(=O)OCc3ccccc3)n2)cc1 [Compound 5379, 2-[4-(4-Aminomethyl-phenyl)-thiazol-2-ylcarbamoyl]-pyrrolidine-1-carboxylic acid benzyl ester] | 25%
CN(C)c1ccc(-c2csc(NC(=O)C3CCCN3C(=O)OCc3ccccc3)n2)cc1 (centres unmarked) [Compound 5013, 2-[4-(4-Dimethylamino-phenyl)-thiazol-2-ylcarbamoyl]-pyrrolidine-1-carboxylic acid benzyl ester] | 97%
Nc1ccc(-c2cnc(NC(=O)[C@@H]3CCCN3C(=O)OCc3ccccc3)s2)cc1 [Compound 5111, 2-[5-(4-Amino-phenyl)-thiazol-2-ylcarbamoyl]-pyrrolidine-1-carboxylic acid benzyl ester] | 40%
O=C(NC1CC1)c1ccc(-c2csc(NC(=O)[C@@H]3CCCN3C(=O)c3ccccc3)n2)cc1 [Compound 5367, 1-Benzoyl-pyrrolidine-2-carboxylic acid [4-(4-cyclopropylcarbamoyl-phenyl)-thiazol-2-yl]-amide] | 97.3%
O=C(NCCN1CCCCC1)c1ccc(-c2csc(NC(=O)[C@@H]3CCCN3C(=O)OCc3ccccc3)n2)cc1 [Compound 5307, 2-{4-[4-(2-Piperidin-1-yl-ethylcarbamoyl)-phenyl]-thiazol-2-ylcarbamoyl}-pyrrolidine-1-carboxylic acid benzyl ester] | 100%
O=C(Nc1ncc(Cc2cccc(Cl)c2)s1)[C@@H]1CCCN1C(=O)OCc1ccccc1 [Compound 5029, 2-[5-(3-Chloro-benzyl)-thiazol-2-ylcarbamoyl]-pyrrolidine-1-carboxylic acid benzyl ester] | 0.52%

SMILES | inhibition at 10 µM
CCCCC(=O)Nc1ccc(-c2csc(NC(=O)[C@@H]3CCCN3C(=O)OCc3ccccc3)n2)cc1 [Compound 5089, 2-[4-(4-Pentanoylamino-phenyl)-thiazol-2-ylcarbamoyl]-pyrrolidine-1-carboxylic acid benzyl ester] | 100%
O=C(Nc1nc(-c2ccc(F)cc2)cs1)[C@@H]1CCCN1C(=O)OCc1ccccc1 [Compound 5098, 2-[4-(4-Fluoro-phenyl)-thiazol-2-ylcarbamoyl]-pyrrolidine-1-carboxylic acid benzyl ester] | 97.2%
Cc1cccc(Cc2cnc(NC(=O)[C@@H]3CCCN3C(=O)OCc3ccccc3)s2)c1 [Compound 5067, 2-[5-(3-Methyl-benzyl)-thiazol-2-ylcarbamoyl]-pyrrolidine-1-carboxylic acid benzyl ester] | 23.9%
O=C(Nc1ccc(-c2csc(NC(=O)[C@@H]3CCC(=O)N3C(=O)OCc3ccccc3)n2)cc1)C1CC1 [Compound 5366, 2-{4-[4-(Cyclopropanecarbonyl-amino)-phenyl]-thiazol-2-ylcarbamoyl}-5-oxo-pyrrolidine-1-carboxylic acid benzyl ester] | 99.3%
O=C(NC1CC1)c1ccc(-c2csc(NC(=O)C3CCCN3C(=O)CCc3ccccc3)n2)cc1 (centres unmarked) [Compound 5358, 1-(3-Phenyl-propionyl)-pyrrolidine-2-carboxylic acid [4-(4-cyclopropylcarbamoyl-phenyl)-thiazol-2-yl]-amide] | 84.8%
O=C(Nc1nc(-c2ccc([N+](=O)[O-])cc2)cs1)[C@@H]1CCCN1C(=O)OCc1ccccc1 [Compound 5041, 2-[4-(4-Nitro-phenyl)-thiazol-2-ylcarbamoyl]-pyrrolidine-1-carboxylic acid benzyl ester] | 76%
CC(C)(C)OC(=O)N1CCC(NC(=O)c2ccc(-c3csc(NC(=O)[C@@H]4CCCN4C(=O)OCc4ccccc4)n3)cc2)CC1 [Compound 5336, 4-(4-{2-[(1-Benzyloxycarbonyl-pyrrolidine-2-carbonyl)-amino]-thiazol-4-yl}-benzoylamino)-piperidine-1-carboxylic acid tert-butyl ester] | 96.3%
O=C(Cc1csc(NC(=O)[C@@H]2CCCN2C(=O)OCc2ccccc2)n1)NCCc1ccccc1 [Compound 5068, 2-[4-(Phenethylcarbamoyl-methyl)-thiazol-2-ylcarbamoyl]-pyrrolidine-1-carboxylic acid benzyl ester] | 13.5%
O=C(Nc1ccc(-c2csc(NC(=O)C3CCCN3C(=O)OCc3ccccc3)n2)cc1)c1ccccc1 (centres unmarked) [Compound 5037, 2-[4-(4-Benzoylamino-phenyl)-thiazol-2-ylcarbamoyl]-pyrrolidine-1-carboxylic acid benzyl ester] | 100%
COCCCNC(=O)c1ccc(-c2csc(NC(=O)[C@@H]3CCCN3C(=O)OCc3ccccc3)n2)cc1 [Compound 5370, 2-{4-[4-(3-Methoxy-propylcarbamoyl)-phenyl]-thiazol-2-ylcarbamoyl}-pyrrolidine-1-carboxylic acid benzyl ester] | 100%
O=C(Nc1nc(-c2ccc(Cl)cc2Cl)cs1)[C@@H]1CCCN1C(=O)OCc1ccccc1 [Compound 5101, 2-[4-(2,4-Dichloro-phenyl)-thiazol-2-ylcarbamoyl]-pyrrolidine-1-carboxylic acid benzyl ester] | 69.2%
O=C(Nc1nc(CSc2nc3ccccc3[nH]2)cs1)[C@@H]1CCCN1C(=O)OCc1ccccc1 [Compound 5064, 2-[4-(1H-Benzoimidazol-2-ylsulfanylmethyl)-thiazol-2-ylcarbamoyl]-pyrrolidine-1-carboxylic acid benzyl ester] | 18.1%
CC(=O)c1ccc(Cc2cnc(NC(=O)[C@@H]3CCCN3C(=O)OCc3ccccc3)s2)cc1 [Compound 5053, 2-[5-(4-Acetyl-benzyl)-thiazol-2-ylcarbamoyl]-pyrrolidine-1-carboxylic acid benzyl ester] | 4.55%
CC(C)(C)OC(=O)N1CCS[C@H]1C(=O)Nc1nc(-c2ccc(C(=O)NC3CC3)cc2)cs1 [Compound 5334, 2-[4-(4-Cyclopropylcarbamoyl-phenyl)-thiazol-2-ylcarbamoyl]-thiazolidine-3-carboxylic acid tert-butyl ester] | 99.9%
N#Cc1ccc(-c2csc(NC(=O)[C@@H]3CCCN3C(=O)OCc3ccccc3)n2)cc1 [Compound 5305, 2-[4-(4-Cyanophenyl)-thiazol-2-ylcarbamoyl]-pyrrolidine-1-carboxylic acid benzyl ester] | 76.3%
O=C(Nc1ncc(Cc2ccc(Cl)cc2Cl)s1)[C@@H]1CCCN1C(=O)OCc1ccccc1 [Compound 5031, 2-[5-(2,4-Dichloro-benzyl)-thiazol-2-ylcarbamoyl]-pyrrolidine-1-carboxylic acid benzyl ester] | 2.85%

From patent US7595398B2, “N-(5-membered aromatic ring)-amido anti-viral compounds” (SmithKline Beecham Corporation, priority 2005, dated 2009)
